Measurements from ChEMBL document CHEMBL4602694, “Suppression of Drug-Resistant Non-Small-Cell Lung Cancer with Inhibitors Targeting Minichromosomal Maintenance Protein” (J Med Chem, 2020).
Activity calls are given as the source filed them. The rule behind the calls is not given here.

Key:
[1] = target: T1, DNA replication licensing factor MCM6 (Homo sapiens) (UniProt Q14566); experiment: Induction of ubiquitination of MCM6 in human NCI-H1975 cells at 140 nM in presence of MG132 incubated for 48 hrs followed by MG132 addition and measured after 12 hrs by immunoblot analysis; format: cell-based
T1 sequence (whole entry): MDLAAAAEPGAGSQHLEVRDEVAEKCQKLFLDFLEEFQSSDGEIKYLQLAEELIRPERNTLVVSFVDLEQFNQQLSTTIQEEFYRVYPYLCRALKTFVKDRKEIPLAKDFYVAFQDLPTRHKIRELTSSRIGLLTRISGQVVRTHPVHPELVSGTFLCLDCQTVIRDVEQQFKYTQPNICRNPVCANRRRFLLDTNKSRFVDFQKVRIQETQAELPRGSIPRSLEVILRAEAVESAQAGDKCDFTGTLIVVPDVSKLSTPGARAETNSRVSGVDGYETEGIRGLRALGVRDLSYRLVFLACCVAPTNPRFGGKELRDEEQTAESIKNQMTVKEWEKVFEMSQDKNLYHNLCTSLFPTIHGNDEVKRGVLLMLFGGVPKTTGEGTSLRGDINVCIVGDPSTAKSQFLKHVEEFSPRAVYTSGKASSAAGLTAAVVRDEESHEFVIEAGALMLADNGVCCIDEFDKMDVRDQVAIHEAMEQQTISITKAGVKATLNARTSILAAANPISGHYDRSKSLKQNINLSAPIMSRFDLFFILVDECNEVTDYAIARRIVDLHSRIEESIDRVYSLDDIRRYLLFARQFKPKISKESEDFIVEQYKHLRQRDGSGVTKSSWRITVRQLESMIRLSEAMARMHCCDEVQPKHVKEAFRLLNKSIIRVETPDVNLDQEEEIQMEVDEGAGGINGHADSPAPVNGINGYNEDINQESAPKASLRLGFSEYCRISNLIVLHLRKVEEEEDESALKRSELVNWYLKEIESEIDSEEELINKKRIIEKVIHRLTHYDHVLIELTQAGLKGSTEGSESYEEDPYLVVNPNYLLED

[2] = Toxicity in athymic nude BALB/c mouse xenografted with human NCI-H1975 cells assessed as effect on liver at 1 or 4 mg/kg, ip administered for 4 weeks; format: organism-based; conditions: in vivo, 672 h
[3] = target: T1, DNA replication licensing factor MCM6 (Homo sapiens); experiment: Induction of ubiquitination of MCM6 in human H3255 cells incubated for 24 hrs by immunoblot analysis; format: cell-based; conditions: NCI-H3255
NCI-H1975 [4] = experiment: Antiproliferative activity against human NCI-H1975 cells harboring FLAG-tagged MCM2 assessed as reduction in cell viability incubated for 72 hrs by SRB assay; format: functional, cell-based; conditions: NCI-H1975, 72 h
[5] = Selectivity index, ratio of IC50 for human bronchial epithelial cells to IC50 for human CL1-0 cells; format: toxicity; conditions: human bronchial epithelial cells versus CL1-0 cells, read-out: Ratio IC50
[6] = Toxicity in athymic nude BALB/c mouse xenografted with human NCI-H1975 cells assessed as reduction in body weight at 1 or 4 mg/kg, ip administered for 4 weeks; format: organism-based; conditions: in vivo, 672 h
[7] = target: DNA replication licensing factor MCM7 (Homo sapiens) (UniProt P33993); experiment: Induction of ubiquitination of MCM7 in human NCI-H1975 cells incubated for 72 hrs by immunoblot analysis (reference value: 1); format: cell-based
NCI-H1975 [8] = experiment: Cell cycle arrest in human NCI-H1975 cells assessed as BrdU positive cells at 140 nM incubated for 24 hrs by BrdUrd incorporation assay (reference value: 44.5 +/- 2 %); format: functional
CL1-0 = experiment: Antiproliferative activity against human CL1-0 cells assessed as reduction in cell viability incubated for 72 hrs by SRB assay; format: functional, cell-based; conditions: CL1-0, 72 h
[9] = target: DNA replication licensing factor MCM7 (Homo sapiens) (UniProt P33993); experiment: Induction of ubiquitination of MCM7 in human NCI-H1975 cells incubated for 48 hrs by immunoblot analysis (reference value: 1); format: cell-based
[10] = Antiproliferative activity against human PC9IR cells assessed as reduction in cell viability incubated for 72 hrs by SRB assay; format: functional, cell-based
[11] = target: DNA replication licensing factor MCM2 (Homo sapiens) (UniProt P49736); experiment: Induction of ubiquitination of MCM2 in human NCI-H1975 cells incubated for 48 hrs by immunoblot analysis (reference value: 1); format: cell-based
NCI-H1975 [12] = experiment: Antiproliferative activity against human NCI-H1975 cells harboring FLAG-tagged MCM2 Q341A mutant assessed as reduction in cell viability incubated for 72 hrs by SRB assay; format: functional, cell-based; conditions: NCI-H1975, 72 h
[13] = Toxicity in athymic nude BALB/c mouse xenografted with human NCI-H1975 cells assessed as effect on serum aspartate transaminase at 1 or 4 mg/kg, ip administered for 4 weeks; format: organism-based; conditions: in vivo, 672 h
[14] = Selectivity index, ratio of IC50 for human bronchial epithelial cells to IC50 for human CL1-5 cells; format: toxicity; conditions: human bronchial epithelial cells versus CL1-5 cells, read-out: Ratio IC50
[15] = target: DNA replication licensing factor MCM2 (Homo sapiens) (UniProt P49736); experiment: Induction of ubiquitination of MCM2 in human NCI-H1975 cells at 140 nM in presence of MG132 incubated for 48 hrs followed by MG132 addition and measured after 12 hrs by immunoblot analysis; format: cell-based
[16] = target: DNA replication licensing factor MCM2 (Homo sapiens) (UniProt P49736); experiment: Induction of ubiquitination of MCM2 in human NCI-H1975 cells in presence of MG132 incubated for 48 hrs followed by MG132 addition and measured after 12 hrs by immunoblot analysis (reference value: 1.4); format: cell-based
NCI-H1975 [17] = experiment: Antitumor activity against human NCI-H1975 cells xenografted in athymic nude BALB/c mouse assessed as tumor growth at 1 mg/kg, ip administered for 4 weeks (reference value: 1217 +/- 516.6 cu.mm); format: functional
[18] = target: T1, DNA replication licensing factor MCM6 (Homo sapiens); experiment: Induction of ubiquitination of MCM6 in human NCI-H1975 cells incubated for 24 hrs by immunoblot analysis (reference value: 1); format: cell-based

DNA replication licensing factor MCM2 (Homo sapiens), sequence (P49736 whole entry): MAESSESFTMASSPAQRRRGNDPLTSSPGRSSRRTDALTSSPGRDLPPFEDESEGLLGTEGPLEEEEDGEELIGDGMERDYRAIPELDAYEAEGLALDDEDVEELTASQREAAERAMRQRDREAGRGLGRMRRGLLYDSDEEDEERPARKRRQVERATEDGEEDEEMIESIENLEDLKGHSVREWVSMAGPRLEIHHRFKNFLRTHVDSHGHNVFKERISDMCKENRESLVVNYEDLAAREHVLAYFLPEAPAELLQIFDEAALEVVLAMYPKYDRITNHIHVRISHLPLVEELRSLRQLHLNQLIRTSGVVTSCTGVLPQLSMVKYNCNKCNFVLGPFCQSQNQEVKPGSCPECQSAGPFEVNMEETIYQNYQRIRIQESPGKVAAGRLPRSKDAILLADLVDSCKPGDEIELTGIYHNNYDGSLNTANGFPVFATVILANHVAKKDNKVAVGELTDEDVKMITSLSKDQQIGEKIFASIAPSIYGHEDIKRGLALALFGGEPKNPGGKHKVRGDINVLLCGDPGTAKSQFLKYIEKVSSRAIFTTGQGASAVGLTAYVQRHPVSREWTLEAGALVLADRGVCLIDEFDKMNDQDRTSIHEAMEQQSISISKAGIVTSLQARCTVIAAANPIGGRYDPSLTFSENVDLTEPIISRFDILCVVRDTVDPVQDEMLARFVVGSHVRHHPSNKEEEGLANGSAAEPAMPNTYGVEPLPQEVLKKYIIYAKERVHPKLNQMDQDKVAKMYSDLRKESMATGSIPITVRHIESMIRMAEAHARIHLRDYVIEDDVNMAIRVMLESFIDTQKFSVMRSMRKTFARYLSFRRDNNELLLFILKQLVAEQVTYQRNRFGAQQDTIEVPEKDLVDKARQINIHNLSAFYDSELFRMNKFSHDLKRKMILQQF
DNA replication licensing factor MCM7 (Homo sapiens), sequence (P33993 whole entry): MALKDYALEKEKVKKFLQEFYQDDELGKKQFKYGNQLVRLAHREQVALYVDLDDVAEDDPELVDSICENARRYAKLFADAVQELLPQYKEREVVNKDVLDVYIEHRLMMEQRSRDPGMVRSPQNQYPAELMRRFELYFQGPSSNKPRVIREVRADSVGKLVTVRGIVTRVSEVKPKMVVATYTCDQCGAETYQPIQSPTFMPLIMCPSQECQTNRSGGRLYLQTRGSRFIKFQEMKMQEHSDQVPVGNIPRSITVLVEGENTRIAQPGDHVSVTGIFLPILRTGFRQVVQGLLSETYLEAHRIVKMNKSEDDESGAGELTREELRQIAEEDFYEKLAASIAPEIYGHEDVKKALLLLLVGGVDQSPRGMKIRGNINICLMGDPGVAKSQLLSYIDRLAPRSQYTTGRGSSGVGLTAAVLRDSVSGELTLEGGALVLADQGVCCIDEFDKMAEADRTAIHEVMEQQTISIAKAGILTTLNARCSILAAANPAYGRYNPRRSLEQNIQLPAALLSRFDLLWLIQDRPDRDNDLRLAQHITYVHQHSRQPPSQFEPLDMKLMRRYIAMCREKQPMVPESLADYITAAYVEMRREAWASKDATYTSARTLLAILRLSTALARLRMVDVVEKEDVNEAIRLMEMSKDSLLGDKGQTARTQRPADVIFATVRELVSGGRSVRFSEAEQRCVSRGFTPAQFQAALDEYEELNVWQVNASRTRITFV

Structure (SMILES): Cc1oc2c(c1C(=O)NCCCn1ccnc1)C(=O)c1ccccc1C2=O
- Activity [1]: Active
- Activity [2]: Non-Toxic
- Activity [3]: Active
- IC50 (NCI-H1975 [4]): 71 nM
- selectivity ratio [5]: > 10
- Activity [6]: Non-Toxic
- Activity [7]: 0.4
- Activity (NCI-H1975 [8]): 27.7%
- IC50 (CL1-0): < 100 nM
- Activity [9]: 0.5
- IC50 [10]: < 100 nM
- Activity [11]: 0.4
- IC50 (NCI-H1975 [12]): 150 nM
- Activity [13]: Non-Toxic
- selectivity ratio [14]: > 10
- Activity [15]: Active
- Activity [16]: 1.6
- Activity (NCI-H1975 [17]): 701.2 mm3
- Activity [18]: 0.5
